Read-outs that look alike come from different tables or passages of the source.
Assays:
MCF-7 = assay: Growth inhibition of MCF-7 (oestrogen receptor positive) breast cancer cell line; format: cell-based; details: Homo sapiens
Description: (§1) The compounds of the present invention were evaluated for their ability to inhibit the growth of MDA-MB-231 (triple-negative) and MCF-7 (oestrogen receptor positive) breast cancer cell lines. A positive control (PC), seco-CBI-MI, with structure shown below, was used as a baseline for comparison of the efficacy of the compounds of the present invention.

MDA-MB-231 = assay: Growth inhibition of MDA-MB-231 (triple-negative) breast cancer cell line; format: cell-based; details: Homo sapiens
Description: as §1

RH30 = assay: Anti-proliferative activity in RMS cell lines, MTT assay; format: cell-based; details: read-out: IC50 RH30
Description: (§2) Briefly, […] of a cell suspension (~2000 cells/well) was added in fresh, sterile 96-well plates. Afterwards, rhabdomyosarcoma (RMS) cell lines (RH30, RH41 and JR1) were incubated for 24 h at 37° C., 5% CO2 to allow cellular attachment on the surface of the wells. On the next day after cell seeding, cells were treated with the duocarmycin compounds. 20 μL of drug dilution was added into the wells, making up a final volume of 200 μL/well. In untreated control wells, 20 μL of fresh medium was added instead (0.1% DMSO). Duocarmycin stock concentrations were prepared in DMSO; the concentration of the latter in the wells containing the medium and cells never exceeded 0.1% (v/v). The concentrations tested ranged from 100 μM to 1 pM depending on the IC50 of each compound from preliminary screening. Each experiment was tested at least in triplicate, and antiproliferative activity was determined after 96 hours using a standard MTT (3-(4,5-dimethylthiazol-2-yl)-2,5-diphenyltetrazolium bromide) assay.

JR1 = assay: as above; format: cell-based; details: read-out: IC50 JR1
Description: as §2

RH41 = assay: as above; format: cell-based; details: Homo sapiens, read-out: IC50 RH41
Description: as §2

[1] = tested on: H2AX phosphorylation in MDA-MB-231; assay: H2AX phosphorylation Western Blot as marker of double-stranded DNA damage; format: cell-based, human; details: MDA-MB-231, Western Blot, FIG. 1
Source text: The mechanism of action of the naturally occurring duocarmycins is well documented and involves spirocyclization of the seco-duocamycins including those derived from the CBI and other aryl-ring-fused subunits of the duocarmycin alkylating subunit.

[2] = MDA-MB-231, read-out: IC50 MDA MB 231
[3] = MCF7, MCF-7 growth inhibition, read-out: IC50 MCF7
[4] = MDA-MB-231 growth inhibition, read-out: IC50 MDA MB 231

Row | SMILES | IC50 (MCF-7; MCF7, read-out: IC50 MCF7) [nM] | IC50 (MDA-MB-231; [2]) [nM] | IC50 (RH30; Rh30, 96 h) [nM] | IC50 (JR1; 96 h) [nM] | IC50 (RH41; Rh41, 96 h) [nM] | DNA damage measured using H2AX phosphorylation [1] | IC50 (RH30; RH30, 96 hours, MTT) [nM] | IC50 (JR1; JR1, 96 hours, MTT) [nM] | IC50 (RH41; RH41, 96 hours, MTT) [nM] | IC50 (MCF-7; [3]) [nM] | IC50 (MDA-MB-231; [4]) [nM]
1 | COc1ccc2[nH]c(C(=O)N3CC(CCl)c4c3cc(-c3ccc(N)cc3)c3ccccc43)cc2c1 (centres unmarked) [DP48] | 713 | 911 | 355 ± 352 | 5170 ± 4280 | 581 ± 648 | – | – | – | – | – | –
2 | COc1ccc2[nH]c(C(=O)N3CC(CCl)c4c3cc(O)c3ccccc43)cc2c1 (centres unmarked) [DP31] | – | – | – | – | – | generated DNA damage | 0.0861 ± 0.0248 | 0.243 ± 0.308 | 0.0368 ± 0.0316 | – | –
3 | COc1ccc2[nH]c(C(=O)N3CC(CCl)c4c3ccc3ccc(O)cc43)cc2c1 (centres unmarked) [DP78] | 1020 ± 200 | 1080 ± 200 | 268 ± 130 | 3510 ± 1840 | 500000 ± 416000 | – | – | – | – | – | –
4 | COc1ccc2[nH]c(C(=O)N3CC(CCl)c4c3cc(-c3cccc(O)c3)c3ccccc43)cc2c1 (centres unmarked) [DP47] | 104 ± 79.8 | 206 ± 79.6 | 60.3 ± 49.1 | 59.2 ± 27.2 | 19.2 ± 20.9 | generated DNA damage | – | – | – | – | –
5 | COc1ccc2[nH]c(C(=O)N3CC(CCl)c4c3cc(-c3ccccc3O)c3ccccc43)cc2c1 (centres unmarked) [ICT11044, (1-(Chloromethyl)-5-(2-hydroxyphenyl)-1H-benzo[e]indol-3(2H)-yl)(5-methoxy-1H-indol-2-yl)methanone] | – | – | 124 ± 134 | 422 ± 177 | 291 ± 204 | – | – | – | – | – | –
6 | CCCCNc1cc2c(c3ccccc13)C(CCl)CN2C(=O)c1cc2cc(OC)ccc2[nH]1 (centres unmarked) [DP63] | – | – | – | – | – | – | 0.101 ± 0.048 | 0.217 ± 0.287 | 0.0204 ± 0.0114 | 0.8 ± 0.3 | 1.7 ± 1.4
7 | COc1ccc2[nH]c(C(=O)N3CC(CCl)c4c3cc(-c3ccc(O)cc3)c3ccccc43)cc2c1 (centres unmarked) [DP36] | 20 ± 27.1 | 23.3 ± 9.9 | 6.69 ± 4.33 | 7.28 ± 6.1 | 24.9 ± 34 | generated DNA damage | – | – | – | – | –
8 | COc1ccc2[nH]c(C(=O)N3CC(CCl)c4c3cc(-c3ccccc3)c3ccccc43)cc2c1 (centres unmarked) [ICT11043, (1-(Chloromethyl)-5-phenyl-1H-benzo[e]indol-3(2H)-yl)(5-methoxy-1H-indol-2-yl)methanone] | – | – | 56000 ± 17000 | 138000 ± 75800 | 30200 ± 23100 | – | – | – | – | – | –
9 | COc1ccc2[nH]c(C(=O)N3CC(CCl)c4c3cc(-c3ccncc3)c3ccccc43)cc2c1 (centres unmarked) [ICT11040, (1-(Chloromethyl)-5-(pyridin-4-yl)-1H-benzo[e]indol-3(2H)-yl)(5-methoxy-1H-indol-2-yl)methanone] | – | – | 494 ± 267 | 861 ± 329 | 576 ± 405 | – | – | – | – | – | –
10 | COc1ccc2[nH]c(C(=O)N3CC(CCl)c4c3cc(-c3ccc(CO)cc3)c3ccccc43)cc2c1 (centres unmarked) [DP44] | 4800 ± 4800 | 5400 ± 5800 | 2190 ± 3100 | 4860 ± 4780 | 2800 ± 1960 | – | – | – | – | – | –
11 | COc1ccc(-c2cc3c(c4ccccc24)C(CCl)CN3C(=O)c2cc3cc(OC)ccc3[nH]2)cc1 (centres unmarked) [ICT11038, (1-(Chloromethyl)-5-(4-methoxyphenyl)-1H-benzo[e]indol-3(2H)-yl)(5-methoxy-1H-indol-2-yl)methanone] | – | – | 35.8 ± 16.4 | 801000 ± 207000 | 121000 ± 95300 | – | – | – | – | – | –
12 | COc1ccc2[nH]c(C(=O)N3CC(CCl)c4c3ccc3ccc(OCc5ccccc5)cc43)cc2c1 (centres unmarked) [DP77] | > 10000 | > 10000 | 3080 ± 2570 | 22100 ± 19600 | 22500 ± 17400 | – | – | – | – | – | –
13 | COCc1ccc(-c2cc3c(c4ccccc24)C(CCl)CN3C(=O)c2cc3cc(OC)ccc3[nH]2)cc1 (centres unmarked) [ICT11039, (1-(Chloromethyl)-5-(4-(methoxymethyl)phenyl)-1H-benzo[e]indol-3(2H)-yl)(5-methoxy-1H-indol-2-yl)methanone] | – | – | 12800 ± 8460 | 10100 ± 5780 | 1140 ± 500 | – | – | – | – | – | –
14 | COC(=O)[C@H](CC(C)C)Nc1cc2c(c3ccccc13)C(CCl)CN2C(=O)c1cc2cc(OC)ccc2[nH]1 (some centres unmarked) [DP65] | – | – | – | – | – | generated DNA damage | 0.0763 ± 0.129 | 0.323 ± 0.291 | 0.00551 ± 0.00229 | 8.1 ± 7 | 28.3 ± 29
15 | C#CCCC(=O)Oc1ccc2[nH]c(C(=O)N3CC(CCl)c4c3cc(OCc3ccccc3)c3ccccc43)cc2c1 (centres unmarked) [DP42] | – | 3200 ± 2900 | 81.5 ± 77.3 | 278 ± 156 | 378 ± 209 | – | – | – | – | – | –
16 | COc1ccc2[nH]c(C(=O)N3CC(CCl)c4c3cc(-c3cccnc3)c3ccccc43)cc2c1 (centres unmarked) [ICT11041, (1-(Chloromethyl)-5-(pyridin-3-yl)-1H-benzo[e]indol-3(2H)-yl)(5-methoxy-1H-indol-2-yl)methanone] | – | – | 8040 ± 1030 | 12200 ± 4580 | 6000 ± 5120 | – | – | – | – | – | –
17 | COc1ccc2[nH]c(C(=O)N3CC(CCl)c4c3cc(-c3ccc(C)cc3)c3ccccc43)cc2c1 (centres unmarked) [DP45] | > 10000 | > 10000 | 56700 ± 37600 | 32900 ± 29100 | 68000 ± 50700 | generated DNA damage | – | – | – | – | –
18 | COc1ccc2[nH]c(C(=O)N3CC(CCl)c4c3cc(Nc3ccc(C(F)(F)F)cc3)c3ccccc43)cc2c1 (centres unmarked) [DP70] | – | – | – | – | – | generated DNA damage | 18.9 ± 18.9 | 44.6 ± 56.1 | 31.2 ± 28.8 | 76.7 ± 29 | 129 ± 18.9
19 | COc1ccc2[nH]c(C(=O)N3CC(CCl)c4c3cc(O)c3ccccc43)cc2c1 (centres unmarked) [PC, seco-CBI-MI, reference compound] | – | – | – | – | – | – | – | – | – | 0.69 ± 0.3 | 0.62 ± 0.5
20 | C#CCCCC(=O)Oc1ccc2[nH]c(C(=O)N3CC(CCl)c4c3cc(OCc3ccccc3)c3ccccc43)cc2c1 (centres unmarked) [DP51] | – | > 10000 | 1220 ± 830 | 18500 ± 9640 | 2510 ± 1160 | – | – | – | – | – | –
21 | COc1ccc(Nc2cc3c(c4ccccc24)C(CCl)CN3C(=O)c2cc3cc(OC)ccc3[nH]2)cc1 (centres unmarked) [DP59] | – | – | – | – | – | generated DNA damage | 0.376 ± 0.157 | 1.33 ± 1.93 | 0.298 ± 0.154 | 2.5 ± 0.7 | 7.6 ± 2.1
22 | O=C(c1cc2cc(O)ccc2[nH]1)N1CC(CCl)c2c1cc(OCc1ccccc1)c1ccccc21 (centres unmarked) [DP40] | – | – | – | – | – | – | 227 ± 307 | 1400 ± 1240 | 530 ± 514 | 1300 ± 100 | 2200 ± 200

— patent US20260217679A1, “CANCER TREATING COMPOUNDS” (UNIVERSITY OF BRADFORD, priority 2023, published 2026)
